Laboratory results: patent publication US9643964B2, “3-(2-aminopyrimidin-4-yl)-5-(3-hydroxypropynyl)-1H-pyrrolo[2,3-C]pyridine derivatives as NIK inhibitors for the treatment of cancer” (Janssen Pharmaceutica NV, priority 2013, dated 2017)
pEC50, pIC50: −log10 of the molar value.

Columns and labels:
[1] = biological target: T1, Recombinant Human NF-kappaB-Inducing Kinase (NIK/MAP3K14) (Homo sapiens, UniProt Q99558); assay: Biological Assay A: inhibition of recombinant human NIK/MAP3K14 activity (MBP phosphorylation, Mesoscale); format: biochemical; details: averaged over all measurements on all batches; read-out: Biochemical (MSD MBP) IC50
Procedure: Inhibition of Recombinant Human NF-kappaB-Inducing Kinase (NIK/MAP3K14) Activity
Assay buffer was 50 mM Tris pH 7.5 containing 1 mM EGTA (ethylene glycol tetraacetic acid), 1 mM DTT (dithiothreitol), 0.1 mM Na3VO4, 5 mM MgCl2, 0.01% Tween 20. Assays were carried out in 384 well Mesoscale high binding plates which had been coated with myelin basic protein (MBP) and blocked with bovine serum albumin to prevent non-specific protein binding. All compounds tested were dissolved in dimethyl sulfoxide (DMSO) and further dilutions were made in assay buffer. Final DMSO concentration was 1% (v/v) in assays. Incubations consisted of compound (1% DMSO in control and blank wells), 25 μM Adenosine-5′-triphosphate (ATP), and 10 nM NIK/MAP3K14 substituting enzyme with buffer in the blank wells. Incubations were carried out for 1 h at 25° C. and were followed by washing and sequential incubation with rabbit anti-phospho-MBP and anti-rabbit Ig Sulfotag antibody before reading bound Sulfotag on a Mesoscale Discovery. Signal obtained in the wells containing blank samples was subtracted from all other wells and IC50's were determined by fitting a sigmoidal curve to % inhibition of control versus Log10 compound concentration.

[2] = biological target: T1, Recombinant Human NF-kappaB-Inducing Kinase (NIK/MAP3K14); assay: Biological Assay A2: inhibition of auto-phosphorylation of recombinant human NIK/MAP3K14 (AlphaScreen); format: biochemical; details: auto-phosphorylation; averaged over all measurements on all batches; read-out: αscreen IC50
Outline: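 GST-tagged NIK/MAP3K14 (0.2 nM) auto-phosphorylation with 25 microM ATP in 50 mM Tris pH 7.5, 5 mM MgCl2, 1% DMSO; 1 h at 25° C. Phospho-IKK Ser176/180 detected by AlphaScreen; blank-subtracted % inhibition fitted sigmoidally vs log concentration for IC50.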

[3] = system: P-IKKα levels in L363 cells; assay: Biological Assay B: effect of compounds on P-IKKα levels in L363 cells; format: cell-based; details: Homo sapiens, L-363, averaged values, read-out: IKKα Cellular IC50
Procedure: Effect of Compounds on P-IKKα Levels in L363 Cells
All compounds tested were dissolved in DMSO and further dilutions were made in culture medium. Final DMSO concentration was 1% (v/v) in cell assays. The human L363 cells (ATCC) were cultured in RPMI 1640 medium supplemented with GlutaMax and 10% fetal calf serum (PAA). Cells were routinely maintained at densities of 0.2×10^6 cells per ml-1×10^6 cells per ml at 37° C. in a humidified 5% CO2 atmosphere. Cells were passaged twice a week splitting back to obtain the low density. Cells were seeded in 96 well plates (Nunc 167008) at 2×10^6 per ml media in a volume of 75 μl per well plus 25 μl 1 μg/ml recombinant human B-cell activating factor BAFF/B1YS/TNFSF13B. Seeded cells were incubated at 37° C. in a humidified 5% CO2 atmosphere for 24 hr. Drugs and/or solvents were added (20 μl) to a final volume of 120 μl. Following 2 hr treatment plates were removed from the incubator and cell lysis was achieved by the addition of 30 μl 5× lysis buffer followed by shaking on a plate shaker at 4° C. for 10 min. At the end of this incubation lysed cells were centrifuged at 800×g for 20 min at 4° C. and the lysate was assessed for P-IKKα levels by sandwich immuno-assay carried out in anti-rabbit antibody coated Mesoscale plates. Within an experiment, the results for each treatment were the mean of 2 replicate wells. For initial screening purposes, compounds were tested using an 8 point dilution curve (serial 1:3 dilutions). For each experiment, controls (containing MG132 and BAFF but no test drug) and a blank incubation (containing MG132 and BAFF and 10 μM ADS125117, a test concentration known to give full inhibition) were run in parallel. The blank incubation value was subtracted from all control and sample values. To determine the IC50 a sigmoidal curve was fitted to the plot of % inhibition of control P-IKKα levels versus Log10 compound concentration.

LP-1 cells = assay: Biological Assay C: antiproliferative activity on LP-1 cells (CellTiter-Glo); format: cell-based, human; details: Homo sapiens, LP-1, 72 h, 72 hr treatment; averaged values
Outline: (§1)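 CellTiter-Glo luminescence after 72 h exposure, blank (cells read at compound addition) subtracted, growth expressed as % of untreated control; duplicate wells. Suspension cells in RPMI/10% FCS, 2,000–6,000 cells/well, 0.3% DMSO.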

L-363 cells = assay: Biological Assay C: antiproliferative activity on L-363 cells (CellTiter-Glo); format: cell-based, human; details: Homo sapiens, L-363, 72 h, 72 hr treatment; averaged values
Outline: as §1

JJN-3 cells = assay: Biological Assay C: antiproliferative activity on JJN-3 cells (CellTiter-Glo); format: cell-based, human; details: Homo sapiens, JJN-3, 72 h, 72 hr treatment; averaged values
Outline: as §1

T1 sequence (Q99558 whole entry): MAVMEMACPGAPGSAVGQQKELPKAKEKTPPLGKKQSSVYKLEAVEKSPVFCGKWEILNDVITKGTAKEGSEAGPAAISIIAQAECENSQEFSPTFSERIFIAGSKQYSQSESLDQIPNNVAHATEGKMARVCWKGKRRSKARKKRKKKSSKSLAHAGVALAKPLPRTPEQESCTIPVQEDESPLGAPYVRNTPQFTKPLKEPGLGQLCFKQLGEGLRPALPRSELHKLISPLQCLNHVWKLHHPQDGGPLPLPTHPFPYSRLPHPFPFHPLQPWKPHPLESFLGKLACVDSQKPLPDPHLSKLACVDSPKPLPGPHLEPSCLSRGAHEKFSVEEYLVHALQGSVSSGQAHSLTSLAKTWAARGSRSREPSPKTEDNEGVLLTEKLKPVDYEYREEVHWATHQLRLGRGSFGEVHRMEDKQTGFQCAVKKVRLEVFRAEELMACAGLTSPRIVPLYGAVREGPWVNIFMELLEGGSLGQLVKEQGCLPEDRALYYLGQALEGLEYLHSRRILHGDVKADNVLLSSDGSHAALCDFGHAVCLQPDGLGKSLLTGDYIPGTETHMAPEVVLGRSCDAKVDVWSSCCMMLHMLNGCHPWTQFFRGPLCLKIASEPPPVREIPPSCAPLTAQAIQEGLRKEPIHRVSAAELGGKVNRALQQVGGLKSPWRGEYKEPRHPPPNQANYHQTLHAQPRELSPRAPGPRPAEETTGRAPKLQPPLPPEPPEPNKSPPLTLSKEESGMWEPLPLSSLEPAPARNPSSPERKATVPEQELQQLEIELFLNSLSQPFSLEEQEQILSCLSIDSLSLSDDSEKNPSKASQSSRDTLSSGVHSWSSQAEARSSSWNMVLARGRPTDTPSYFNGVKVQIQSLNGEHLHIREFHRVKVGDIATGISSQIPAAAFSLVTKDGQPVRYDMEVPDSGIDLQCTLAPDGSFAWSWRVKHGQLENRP

| Structure (SMILES) | pIC50 [1] | pIC50 [2] | pIC50 [3] | pEC50 (LP-1 cells) | pEC50 (L-363 cells) | pEC50 (JJN-3 cells) |
| --- | --- | --- | --- | --- | --- | --- |
| CC(C)(O)C#Cc1cc2c(-c3ccnc(N)n3)cn(CCCN)c2cn1 [Compound 11] | 8.10 | 7.57 | 6.52 | 6.22 | 6.89 | 7.39 |
| CC(C)(O)C#Cc1cc2c(-c3ccnc(N)n3)cn(CCO)c2cn1 [Compound 12] | 8.13 | 8.52 | 6.82 | 4.92 | 5.92 | 5.89 |
| CC(C)(O)C#Cc1cc2c(-c3nc(N)ncc3Cl)c[nH]c2cn1 [Compound 14] | 9.05 | 9.40 | 7.96 | 6.41 | 7.12 | 7.12 |
| CC(C)n1cc(-c2ccnc(N)n2)c2cc(C#CC(C)(C)O)ncc21 [Compound 15] | 8.32 | 7.92 | 7.80 | 6.43 | 7.36 | 6.92 |
| CC(C)n1cc(-c2nc(N)ncc2Cl)c2cc(C#CC(C)(C)O)ncc21 [Compound 16] | 8.37 | 8.70 | 8.14 | 7.04 | 7.24 | 7.46 |
| CC(C)n1cc(-c2nc(N)ncc2Cl)c2cc(C#CC(C)(O)c3nccs3)ncc21 (stereo not drawn) [Compound 17] | 8.31 | 8.22 | 7.77 | 5.10 | 6.09 | 6.34 |
| CC(C)n1cc(-c2ccnc(N)n2)c2cc(C#CC3(O)CCCC3)ncc21 [Compound 18] | 8.43 | 8.10 | 7.33 | 5.82 | 6.35 | 6.47 |
| CC(C)n1cc(-c2nc(N)ncc2Cl)c2cc(C#CC3(O)CCCC3)ncc21 [Compound 19] | 8.28 | 7.80 | 7.74 | 5.92 | 6.37 | 6.80 |
| COCCn1cc(-c2nc(N)ncc2Cl)c2cc(C#CC(C)(O)c3nccs3)ncc21 (stereo not drawn) [Compound 20] | 8.03 | 7.82 | 7.52 | 4.96 | 5.30 | 6.00 |
| CC(C)(O)Cn1cc(-c2nc(N)ncc2Cl)c2cc(C#CC3(O)CC3)ncc21 [Compound 21] | 7.74 | 8.52 | 7.89 | 5.55 | 7.13 | 7.18 |
| CC(C)(O)Cn1cc(-c2ccnc(N)n2)c2cc(C#CC3(O)CC3)ncc21 [Compound 22] | 7.70 | 8.05 | 7.12 | 5.80 | 6.72 | 6.55 |
| CC(C)(O)Cn1cc(-c2nc(N)ncc2Cl)c2cc(C#CC(C)(O)c3nccs3)ncc21 (stereo not drawn) [Compound 23] | 7.52 | 8.05 | 7.05 | 5.11 | 5.00 | 5.60 |
| CC(C)(O)C#Cc1cc2c(-c3nc(N)ncc3Cl)cn(CC(C)(C)O)c2cn1 [Compound 24] | 8.06 | 7.82 | 7.89 | 6.12 | 7.02 | 6.85 |
| COCCn1cc(-c2nc(N)ncc2Cl)c2cc(C#CC(C)(C)O)ncc21 [Compound 25] | 8.00 | 7.70 | 7.96 | 6.72 | 7.20 | 6.96 |
| COCCn1cc(-c2ccnc(N)n2)c2cc(C#CC(C)(O)c3nccs3)ncc21 (stereo not drawn) [Compound 26] | 7.31 | 7.72 | 6.92 | 4.82 | 4.96 | 5.25 |
| CC(C)(O)Cn1cc(-c2ccnc(N)n2)c2cc(C#CC(C)(O)c3nccs3)ncc21 (stereo not drawn) [Compound 27] | 7.60 | 7.15 | 6.44 | < 5.00 | < 5.00 | 5.01 |
| CC(C)(O)C#Cc1cc2c(-c3ccnc(N)n3)cn(CC3COC3)c2cn1 [Compound 28] | 7.77 | 7.31 | 7.08 | 5.24 | 6.09 | 5.92 |
